According to US8455497B2, “Inhibitors of aspartyl protease” (Vertex Pharmaceuticals Incorporated, priority 1999, dated 2013):
pIC50: −log10 of the molar value. Read-outs that look alike come from different tables or passages of the source.

Key:
[1] = system: D545701-14 multi protease inhibitor resistant virus; test: Anti-viral activity against resistant virus D545701-14 in MT4 cells; type: cell-based, HIV-1
Procedure: (§1) Exponentially growing MT4 cells were harvested and centrifuged at 1000 rpm for 10 min in a Jouan centrifuge (model CR 4 12). […] Cell aliquots were infected by the addition of HIV-1 (strain IIIB) diluted to give a viral multiplicity of infection of 100×TCID50. […] Cell infection was allowed to proceed for 1 hr at 37° in a tissue culture incubator with humidified 5% CO2 atmosphere. After the 1 hr incubation the virus/cell suspensions were diluted 6-fold with fresh medium, and 125 μl of the cell suspension was added to each well of the plate containing pre-diluted compound. Plates were then placed in a tissue culture incubator with humidified 5% CO2 for 5 days. At the end of the incubation period, 27 μl of 5% Nonidet-40 was added to each well of the incubation plate. After thorough mixing with a Costar multitip pipetter, 60 μl of the mixture was transferred to filter-bottomed 96-well plates. The plates were analyzed in an automated assay instrument (Screen Machine, Idexx Laboratories). The assay makes use of a propidium iodide dye to estimate the DNA content of each well.
(§2) Anti-Viral Activity Against Resistant Viruses
EP13 and DS45701, two multi protease inhibitor resistant viruses were used to assess potency against mutant viruses. These viruses contain the following mutations relative to the consensus sequence of wild type virus: […]

[2] = system: EP13 multi protease inhibitor resistant virus; test: Anti-viral activity against resistant virus EP13 in MT4 cells; type: cell-based, HIV-1
Procedure: as §1, §2
EP13 and DS45701, two multi protease inhibitor resistant viruses were used to assess potency against mutant viruses. These viruses contain the following mutations relative to the consensus sequence of wild type virus:
EP13: Protease amino acid sequence: M46I, L63P, A71V, V82F/L, I84V; No reverse transcriptase mutations.

[3] = system: HIV-1 (strain IIIB); test: Antiviral activity assay in MT4 cells (propidium iodide based); type: cell-based; details: wild type HIV-1 virus, MT4 cells, read-out: Wildtype virus - IC50
Procedure: Antiviral Activity Assay in MT4 Cells
Aliquots of the test compounds were serially diluted in medium (RPMI 1640, 10% fetal calf serum (FCS), and gentamycin) in 96-well plates (Costar 3598) using a Cetus Pro/Pette. Exponentially growing MT4 cells were harvested and centrifuged at 1000 rpm for 10 min in a Jouan centrifuge (model CR 4 12). Cell pellets were resuspended in fresh medium (RPMI 1640, 20% FCS, 20% IL-2, and gentamycin) to a density of 5×10^5 cells/ml. Cell aliquots were infected by the addition of HIV-1 (strain IIIB) diluted to give a viral multiplicity of infection of 100×TCID50. A similar cell aliquot was diluted with medium to provide a mock-infected control. Cell infection was allowed to proceed for 1 hr at 37° in a tissue culture incubator with humidified 5% CO2 atmosphere. After the 1 hr incubation the virus/cell suspensions were diluted 6-fold with fresh medium, and 125 μl of the cell suspension was added to each well of the plate containing pre-diluted compound. Plates were then placed in a tissue culture incubator with humidified 5% CO2 for 5 days. At the end of the incubation period, 27 μl of 5% Nonidet-40 was added to each well of the incubation plate. After thorough mixing with a Costar multitip pipetter, 60 μl of the mixture was transferred to filter-bottomed 96-well plates. The plates were analyzed in an automated assay instrument (Screen Machine, Idexx Laboratories). The assay makes use of a propidium iodide dye to estimate the DNA content of each well.
The anti-viral potency in MT-4 cells of the compounds set forth in Tables 1 and 2 was determined using the above technique.

[4] = Human immunodeficiency virus 1, MT4, read-out: EP13 mutant IC50, EP13 multi protease inhibitor resistant virus, MT4 cells
[5] = Human immunodeficiency virus 1, IIIB
[6] = Human immunodeficiency virus 1, MT4, read-out: Reference data for protease inhibitors (D545701-14), D545701-14 mutant virus
[7] = Human immunodeficiency virus 1, MT4, read-out: Reference data for protease inhibitors (EP13), EP13 mutant virus
[8] = D545701-14 multi protease inhibitor resistant virus, MT4 cells, read-out: D545701-14 mutant - IC50

Structure (SMILES) | pIC50 [1, 8] | pIC50 [3] | further results
CC(C)CN(C[C@@H](O)[C@H](Cc1ccc(OCCCNc2ncccn2)cc1)NC(=O)OC1CO[C@H]2OCC[C@@H]12)S(=O)(=O)c1ccc2c(c1)OCO2 (stereo in doubt) [Compound 271, (3R,3aS,6aR)-hexahydrofuro[2,3-b]furan-3-yl (1S,2R)-3-[(1,3-benzodioxol-5-ylsulfonyl)(isobutyl)amino]-2-hydroxy-1-{4-[3-(2-pyrimidinylamino)propoxy]benzyl}propylcarbamate] | – | – | pIC50 ([1]; Human immunodeficiency virus 1, MT4, read-out: D545701-14 mutant - IC50, D545701-14 multi protease inhibitor resistant virus, MT4 cells): 8.00 to 9.00; pIC50 [2, 4]: 8.00 to 9.00; pIC50 [3, 5]: 8.00 to 9.00
CC(C)CN(C[C@@H](O)[C@H](Cc1ccccc1)NC(=O)O[C@H]1CCOC1)S(=O)(=O)c1ccc(N)cc1 [Amprenavir, reference compound] | – | – | pIC50 [1, 6]: < 6.00; pIC50 [2, 7]: 6.22
CC(C)CN(C[C@@H](O)[C@H](Cc1ccc(OCc2ccoc2)cc1)NC(=O)O[C@H]1CO[C@H]2OCC[C@H]21)S(=O)(=O)c1ccc2c(c1)OCO2 [Compound 210] | 7.00 to 8.00 | 8.00 to 9.00 | –
CC(C)CN(C[C@@H](O)[C@H](Cc1ccc(OCCc2ccccn2)cc1)NC(=O)O[C@H]1CO[C@H]2OCC[C@H]21)S(=O)(=O)c1ccc2c(c1)OCO2 [Compound 212] | 7.00 to 8.00 | 8.00 to 9.00 | –
CC(C)CN(C[C@@H](O)[C@H](Cc1ccc(OCCCNC(=O)c2ccccc2)cc1)NC(=O)O[C@H]1CO[C@H]2OCC[C@H]21)S(=O)(=O)c1ccc2c(c1)OCO2 [Compound 233] | 7.00 to 8.00 | 8.00 to 9.00 | –
CC(C)CN(C[C@@H](O)[C@H](Cc1ccc(OS(=O)(=O)c2ccc([N+](=O)[O-])cc2)cc1)NC(=O)O[C@@H]1CO[C@H]2OCC[C@H]21)S(=O)(=O)c1ccc([N+](=O)[O-])cc1 [Compound 297, 4-((2S,3R)-2-({[(3S,3aS,6aR)-hexahydrofuro[2,3-b]furan-3-yloxy]carbonyl}amino)-3-hydroxy-4-{isobutyl[(4-nitrophenyl)sulfonyl]amino}butyl)phenyl 4-nitrobenzenesulfonate] | – | – | pIC50 [2, 4]: 7.00 to 8.00; pIC50 [3, 5]: 7.00 to 8.00
CC(C)CN(C[C@@H](O)[C@H](Cc1ccc(OCCCc2ccccc2)cc1)NC(=O)O[C@H]1CO[C@H]2OCC[C@H]21)S(=O)(=O)c1ccc2c(c1)OCO2 [Compound 353, (3R,3aS,6aR)hexahydrofuro[2,3-b]furan-3-yl (1S,2R)-3-[(1,3-benzodioxol-5-ylsulfonyl)(isobutyl)amino]-2-hydroxy-1-[4-([3-phenylpropyl]oxy)benzyl]propylcarbamate] | – | – | pIC50 ([1]; read-out: D545701-14 mutant - IC50, D545701-14 multi protease inhibitor resistant virus, MT4 cells): 8.00 to 9.00; pIC50 ([2]; read-out: EP13 mutant IC50, EP13 multi protease inhibitor resistant virus, MT4 cells): > 9.00
CNC(=O)OCCCC(C)(C)CN(C[C@@H](O)[C@H](Cc1ccc(OCc2ccccc2)cc1)NC(=O)OC1CCOC1)S(=O)(=O)c1ccc2c(c1)OCO2 (some centres unmarked) [Compound 362] | – | – | pIC50 [3, 5]: 7.00 to 8.00
CNC(=O)OCCCC(C)(C)CN(C[C@@H](O)[C@H](Cc1ccc(OCc2ccccc2)cc1)NC(=O)OC1COCOC1)S(=O)(=O)c1ccc2c(c1)OCO2 [Compound 363, 1,3-Dioxan-5-yl N-((1S,2R)-1-[(4-benzyloxy)benzyl-3-[2,2-dimethyl-5-(N′-methylcarbamoyloxy)-pentyl][(3,4-methylenedioxyphenyl)sulfonyl]amino-2-hydroxypropyl) carbamate] | – | – | pIC50 [3, 5]: 7.00 to 8.00
CSc1ccc(COc2ccc(C[C@H](NC(=O)O[C@H]3CO[C@H]4OCC[C@H]43)[C@H](O)CN(CC(C)C)S(=O)(=O)c3ccc4c(c3)OCO4)cc2)cc1 [Compound 369] | – | – | pIC50 [3, 5]: 8.00 to 9.00
CC(C)CN(C[C@@H](O)[C@H](Cc1ccc(OCc2ccc(F)cc2)cc1)NC(=O)O[C@H]1CO[C@H]2OCC[C@H]21)S(=O)(=O)c1ccc2c(c1)OCO2 [Compound 371] | – | 7.00 to 8.00 | pIC50 ([2]; EP13 multi protease inhibitor resistant virus, MT4 cells, read-out: EP13 mutant IC50): 8.00 to 9.00
CC(C)CN(C[C@@H](O)[C@H](Cc1ccc(OCc2ccc(C(F)(F)F)cc2)cc1)NC(=O)O[C@H]1CO[C@H]2OCC[C@H]21)S(=O)(=O)c1ccc2c(c1)OCO2 [Compound 372] | 7.00 to 8.00 | 8.00 to 9.00 | –
CC(C)CN(C[C@@H](O)[C@H](Cc1ccc(OCc2cccc(C(F)(F)F)c2)cc1)NC(=O)O[C@H]1CO[C@H]2OCC[C@H]21)S(=O)(=O)c1ccc2c(c1)OCO2 [Compound 373] | 7.00 to 8.00 | 8.00 to 9.00 | –
CC(C)CN(C[C@@H](O)[C@H](Cc1ccc(OCc2ccc(-c3csnn3)cc2)cc1)NC(=O)O[C@H]1CO[C@H]2OCC[C@H]21)S(=O)(=O)c1ccc2c(c1)OCO2 [Compound 374] | – | 8.00 to 9.00 | –
CC(C)CN(C[C@@H](O)[C@H](Cc1ccc(OCc2noc(-c3ccccc3)n2)cc1)NC(=O)O[C@H]1CO[C@H]2OCC[C@H]21)S(=O)(=O)c1ccc2c(c1)OCO2 [Compound 375] | 7.00 to 8.00 | 8.00 to 9.00 | –
CC(C)CN(C[C@@H](O)[C@H](Cc1ccc(OCc2ccc([N+](=O)[O-])cc2)cc1)NC(=O)O[C@H]1CO[C@H]2OCC[C@H]21)S(=O)(=O)c1ccc2c(c1)OCO2 [Compound 383, (3R,3aS,6aR)-hexahydrofuro[2,3-b]furan-3-yl (1S,2R)-3-[(1,3-benzodioxol-5-ylsulfonyl)(isobutyl)amino]-2-hydroxy 1-{4-[(4-nitrobenzyl)oxy]benzyl}propylcarbamate] | – | 8.00 to 9.00 | –
COc1ccccc1-c1nc(COc2ccc(C[C@H](NC(=O)O[C@H]3CO[C@H]4OCC[C@H]43)[C@H](O)CN(CC(C)C)S(=O)(=O)c3ccc4c(c3)OCO4)cc2)no1 [Compound 390, (3R,3aS,6aR)-hexahydrofuro[2,3-b]furan-3-yl (1S,2R)-3-[(1,3-benzodioxol-5-ylsulfonyl)(isobutyl)amino]-2-hydroxy-1-(4-{[5-(2-methoxyphenyl)-1,2,4-oxadiazol-3-yl]methoxy}benzyl) propylcarbamate] | 7.00 to 8.00 | 8.00 to 9.00 | –
CC(C)CN(C[C@@H](O)[C@H](Cc1ccc(OCc2nccn2Cc2ccccc2)cc1)NC(=O)O[C@H]1CO[C@H]2OCC[C@H]21)S(=O)(=O)c1ccc2c(c1)OCO2 [Compound 394] | – | 8.00 to 9.00 | –
N#Cc1cccc(COc2ccc(C[C@H](NC(=O)O[C@H]3CO[C@H]4OCC[C@H]43)[C@H](O)CN(CC3CCCC3)S(=O)(=O)c3ccc4c(c3)OCO4)cc2)c1 [Compound 396, (3R,3aS,6aR)-hexahydrofuro[2,3-b]furan-3-yl (1S,2R)-3-[(1,3-benzodioxol-5-ylsulfonyl)(cyclopentylmethyl)amino-]-1-{4-[(3-cyanobenzyl)oxy]benzyl}-2-hydroxypropylcarbamate] | – | 8.00 to 9.00 | –
CC(C)(C)NC(=O)[C@@H]1CN(Cc2cccnc2)CCN1C[C@@H](O)C[C@@H](Cc1ccccc1)C(=O)N[C@H]1c2ccccc2C[C@H]1O [Indinavir, reference compound] | – | – | pIC50 [1, 6]: 6.15; pIC50 [2, 7]: 6.25
Cc1c(O)cccc1C(=O)N[C@@H](CSc1ccccc1)[C@H](O)CN1C[C@H]2CCCC[C@H]2C[C@H]1C(=O)NC(C)(C)C [Nelfinavir, reference compound] | – | – | pIC50 [1, 6]: 6.16
CC(C)c1nc(CN(C)C(=O)N[C@H](C(=O)N[C@@H](Cc2ccccc2)C[C@H](O)[C@H](Cc2ccccc2)NC(=O)OCc2cncs2)C(C)C)cs1 [Ritonavir, reference compound] | – | – | pIC50 [1, 6]: < 5.00; pIC50 [2, 7]: < 6.22
CC(C)(C)NC(=O)[C@@H]1C[C@@H]2CCCC[C@@H]2CN1C[C@@H](O)[C@H](Cc1ccccc1)NC(=O)[C@H](CC(N)=O)NC(=O)c1ccc2ccccc2n1 [Saguinavir, reference compound] | – | – | pIC50 ([1]; D545701-14 mutant virus, read-out: Reference data for protease inhibitors (D545701-14)): 6.05
